Experimental data as given in US12084458B2, “Substituted pyridines, pyridazines, and pyrimidines as TYK2 inhibitors” (Sudo Biosciences Limited, priority 2021, dated 2024).

How the values were obtained:
[1] = test system: HEK-Blue IFNγ reporter cells (IFNγ-stimulated STAT1 SEAP reporter); assay: HEK-Blue IFNγ SEAP reporter assay for determining selectivity; assay type: cell-based; settings: Homo sapiens, HEK-Blue, 50 ng/mL human recombinant IFNγ, read-out: IFN-γ (SEAP selectivity, IC50)
Outline: (§1)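 Cells were plated for 20-22 h, then pretreated with serially diluted compound for 60 min. They were stimulated for 24 h with 4 ng/mL human recombinant IL-2 or 50 ng/mL human recombinant IFNγ, and SEAP induction was read with QUANTI-Blue.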

[2] = test system: HEK-Blue IL-2 reporter cells (IL-2-stimulated STAT5 SEAP reporter); assay: HEK-Blue IL-2 SEAP reporter assay for determining selectivity; assay type: cell-based; settings: 4 ng/mL human recombinant IL-2
Outline: as §1

JAK3 kinase domain (JH1) = molecular target: T1, JAK3 kinase domain (JH1) (Homo sapiens, UniProt P52333); assay: HTRF-based selectivity assay, JAK3 catalytic domain; assay type: biochemical; settings: recombinant catalytic domain, ATP 2.12 μM
T1 construct: recombinant purified His or GST-tagged catalytic domain for each enzyme; purchased Carna biosciences 08-046
Procedure: (§2) Example B-2: HTRF-Based Selectivity Assay
(§3) The ability of compounds to inhibit the activity of JAK1, JAK2, JAK3 and TYK2 is measured using a recombinant purified His or GST-tagged catalytic domain for each enzyme (JAK1, JAK2 and TYK2 are generated in-house; JAK3 was purchased from Carna biosciences, Cat #08-046) in an HTRF format biochemical assay. The reactions employs a commercial peptide substrate from Cisbio (Cat #62TK0PEC). The basic assay protocol is as follows: first, 2.5 μL of diluted compounds (4×) in DMSO are dispensed into a 384-well Optiplate. Next, 2.5 μL of enzyme (final concentrations for enzymes are: TYK2—700 ng/mL, JAK1—80.6 ng/mL, JAK2—2.1 ng/mL and JAK3—171.8 ng/mL) is added and incubated at RT for 5-20 min. Finally, 5 μl of mixture of 2× ATP [Final concentration 20 μM for TYK2, 21.43 μM for JAK1, 14.7 μM for JAK2 and 2.12 μM for JAK3]+2× Substrate [Final concentration 217 nM for TYK2, 454.7 nM for JAK1, 200 nM for JAK2 and 257.4 nM for JAK3] is added to 384 well Optiplate. Composition of Kinase assay buffer used in the assay is as follows: HEPES 50 mM, EGTA 1 mM, MgCl2 10 mM, DTT 2 mM, Tween-20 0.01% and water. Then the plates are shaken and then incubated at 26.5° C. for 60 min.

TYK2 kinase domain (JH1) = molecular target: T2, TYK2 kinase domain (JH1) (Homo sapiens, UniProt P29597); assay: HTRF-based selectivity assay, TYK2 catalytic domain; assay type: biochemical; settings: recombinant catalytic domain, ATP 20 μM
T2 construct: recombinant purified His or GST-tagged catalytic domain for each enzyme; made in house
T2 sequence (P29597 897-1176 limits assumed): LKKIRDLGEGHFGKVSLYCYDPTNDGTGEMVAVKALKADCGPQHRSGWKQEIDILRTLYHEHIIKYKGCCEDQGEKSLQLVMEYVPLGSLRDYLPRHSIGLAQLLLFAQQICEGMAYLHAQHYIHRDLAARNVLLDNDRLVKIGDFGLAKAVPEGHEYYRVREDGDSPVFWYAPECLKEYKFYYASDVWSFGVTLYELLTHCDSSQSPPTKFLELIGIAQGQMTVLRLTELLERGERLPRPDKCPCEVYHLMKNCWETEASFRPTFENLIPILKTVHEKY
Procedure: as §2, §3

JAK1 kinase domain (JH1) = molecular target: T3, JAK1 kinase domain (JH1) (Homo sapiens, UniProt P23458); assay: HTRF-based selectivity assay, JAK1 catalytic domain; assay type: biochemical; settings: recombinant catalytic domain, ATP 21.43 μM
T3 construct: recombinant purified His or GST-tagged catalytic domain for each enzyme; made in house
Procedure: as §2, §3

[3] = test system: HEK-Blue IL-23 cells (IL-23-stimulated STAT3 SEAP reporter; TYK2 JH2); assay: HEK-Blue IL-23 SEAP reporter assay for profiling TYK2 pseudokinase (JH2) inhibition; assay type: cell-based; settings: 10 ng/mL human recombinant IL-23, SEAP reporter, read-out: IL23 (TYK2 inhibitory activity, IC50)
Outline: (§4)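 Cells plated 20-22 h at 37 °C, 5% CO2 in DMEM with 10% heat-inactivated FBS, then pretreated with serially diluted compound for 60 min. Stimulation: 10 ng/mL human recombinant IL-23 for 22-24 h, or 1 ng/mL human recombinant IFNα for 16-18 h. SEAP induction read with QUANTI-Blue.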

JAK2 kinase domain (JH1) = molecular target: T4, JAK2 kinase domain (JH1) (Homo sapiens, UniProt O60674); assay: HTRF-based selectivity assay, JAK2 catalytic domain; assay type: biochemical; settings: recombinant catalytic domain, ATP 14.7 μM
T4 construct: recombinant purified His or GST-tagged catalytic domain for each enzyme; made in house
Procedure: as §2, §3

[4] = test system: HEK-Blue IFNα/β cells (IFNα-stimulated STAT1 SEAP reporter; TYK2 JH2); assay: HEK-Blue IFNα/β SEAP reporter assay for profiling TYK2 pseudokinase (JH2) inhibition; assay type: cell-based; settings: Homo sapiens, HEK-Blue, 1 ng/mL human recombinant IFNα, read-out: IFNα (TYK2 inhibitory activity, IC50)
Outline: as §4

T3 sequence (P23458 875-1153 limits assumed): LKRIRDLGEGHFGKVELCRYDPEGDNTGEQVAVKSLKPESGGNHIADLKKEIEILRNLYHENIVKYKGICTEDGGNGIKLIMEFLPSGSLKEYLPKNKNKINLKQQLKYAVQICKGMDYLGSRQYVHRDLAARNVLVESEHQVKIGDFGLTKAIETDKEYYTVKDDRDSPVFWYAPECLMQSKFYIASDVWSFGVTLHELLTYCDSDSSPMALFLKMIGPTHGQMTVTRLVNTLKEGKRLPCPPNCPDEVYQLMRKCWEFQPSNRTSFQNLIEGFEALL
T1 sequence (P52333 822-1111 limits assumed): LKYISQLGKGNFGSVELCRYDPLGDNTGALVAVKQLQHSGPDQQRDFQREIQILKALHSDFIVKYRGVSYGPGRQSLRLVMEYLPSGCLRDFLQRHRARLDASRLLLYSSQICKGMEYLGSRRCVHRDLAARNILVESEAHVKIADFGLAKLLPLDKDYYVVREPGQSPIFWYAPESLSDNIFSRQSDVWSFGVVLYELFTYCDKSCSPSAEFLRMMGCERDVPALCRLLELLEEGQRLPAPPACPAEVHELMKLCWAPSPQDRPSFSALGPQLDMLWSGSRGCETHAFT
T4 sequence (O60674 849-1124 limits assumed): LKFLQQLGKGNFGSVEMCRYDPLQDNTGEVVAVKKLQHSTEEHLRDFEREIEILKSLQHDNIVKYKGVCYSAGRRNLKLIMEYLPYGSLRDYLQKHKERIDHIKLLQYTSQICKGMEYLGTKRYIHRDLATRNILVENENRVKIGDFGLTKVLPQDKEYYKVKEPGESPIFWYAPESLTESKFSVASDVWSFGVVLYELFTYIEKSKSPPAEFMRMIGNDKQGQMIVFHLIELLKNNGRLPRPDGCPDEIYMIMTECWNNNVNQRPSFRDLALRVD

IC50 (JAK3 kinase domain (JH1)) [nM]	IC50 (TYK2 kinase domain (JH1)) [nM]	IC50 (JAK1 kinase domain (JH1)) [nM]	IC50 (JAK2 kinase domain (JH1)) [nM]	Compound	IC50 [1] [nM]	IC50 [2] [nM]	IC50 [3] [nM]	IC50 [4] [nM]
> 1000	> 1000	> 1000	> 1000	[2H]C([2H])([2H])NC(=O)c1nnc(NC(=O)C2CC2)cc1Nc1cccc2c1N(C)Cc1nc(C)nn1-2 [Compound 5, 6-(cyclopropanecarboxamido)-4-((2,5-dimethyl-4,5-dihydro-[1,2,4]triazolo[1,5-a]quinoxalin-6-yl)amino)-N-(methyl-d3)pyridazine-3-carboxamide]	30 to 300	> 1000	< 30	< 30
> 1000	> 1000	> 1000	> 1000	[2H]C([2H])([2H])NC(=O)c1cnc(NC(=O)C2CC2)cc1Nc1cccc2c1N(C)Cc1ncnn1-2 [Compound 6, 6-(cyclopropanecarboxamido)-N-(methyl-d3)-4-((5-methyl-4,5-dihydro-[1,2,4]triazolo[1,5-a]quinoxalin-6-yl)amino)nicotinamide]	300 to 1000	> 1000	< 30	< 30
> 1000	> 1000	> 1000	> 1000	[2H]C([2H])([2H])NC(=O)c1nnc(NC(=O)C2CC2)cc1Nc1cccc2c1N(C)Cc1ncnn1-2 [Compound 7, 6-(cyclopropanecarboxamido)-N-(methyl-d3)-4-((5-methyl-4,5-dihydro-[1,2,4]triazolo[1,5-a]quinoxalin-6-yl)amino)pyridazine-3-carboxamide]	30 to 300	> 1000	< 30	30 to 300
> 1000	> 1000	> 1000	> 1000	[2H]C([2H])([2H])NC(=O)c1nnc(Nc2ccc(C(F)(F)F)cn2)cc1Nc1cccc2c1N(C)Cc1nc(C)nn1-2 [Compound 10, 4-((2,5-dimethyl-4,5-dihydro-[1,2,4]triazolo[1,5-a]quinoxalin-6-yl)amino)-N-(methyl-d3)-6-((5-(trifluoromethyl)pyridin-2-yl)amino)pyridazine-3-carboxamide]	–	> 1000	< 30	30 to 300
> 1000	> 1000	> 1000	> 1000	[2H]C([2H])([2H])NC(=O)c1nnc(Nc2ccc(F)cn2)cc1Nc1cccc2c1N(C)Cc1nc(C)nn1-2 [Compound 12, 4-((2,5-dimethyl-4,5-dihydro-[1,2,4]triazolo[1,5-a]quinoxalin-6-yl)amino)-6-((5-fluoropyridin-2-yl)amino)-N-(methyl-d3)pyridazine-3-carboxamide]	–	30 to 300	< 30	< 30
> 1000	> 1000	> 1000	> 1000	[2H]C([2H])([2H])NC(=O)c1nnc(Nc2ccc(C#N)cn2)cc1Nc1cccc2c1N(C)Cc1nc(C)nn1-2 [Compound 13, 6-((5-cyanopyridin-2-yl)amino)-4-((2,5-dimethyl-4,5-dihydro-[1,2,4]triazolo[1,5-a]quinoxalin-6-yl)amino)-N-(methyl-d3)pyridazine-3-carboxamide]	–	> 1000	< 30	< 30
> 1000	> 1000	> 1000	> 1000	[2H]C([2H])([2H])NC(=O)c1nnc(NC(=O)C2CC2)cc1Nc1cccc2c1N(C([2H])([2H])[2H])Cc1nn(C)nc1-2 [Compound 48, 6-(cyclopropanecarboxamido)-N-(methyl-d3)-4-((2-methyl-5-(methyl-d3)-4,5-dihydro-2H-[1,2,3]triazolo[4,5-c]quinolin-6-yl)amino)pyridazine-3-carboxamide]	30 to 300	300 to 1000	< 30	< 30
> 1000	> 1000	> 1000	> 1000	[2H]C([2H])([2H])NC(=O)c1cnc(NC(=O)C2CC2)cc1Nc1cccc2c1N(C)C([2H])([2H])c1nn(C)nc1-2 [Compound 52, 6-(cyclopropanecarboxamido)-4-((2,5-dimethyl-4,5-dihydro-2H-[1,2,3]triazolo[4,5-c]quinolin-6-yl-4,4-d2)amino)-N-(methyl-d3)nicotinamide]	–	> 1000	< 30	< 30
300 to 1000	> 1000	> 1000	30 to 300	CNC(=O)c1nnc(NC(=O)C2CC2)cc1Nc1cccc2c1OCCn1cnnc1-2 [Compound 72, 6-(cyclopropanecarboxamido)-4-((5,6-dihydrobenzo[f][1,2,4]triazolo[4,3-d][1,4]oxazepin-8-yl)amino)-N-methylpyridazine-3-carboxamide]	> 1000	> 1000	300 to 1000	> 1000
> 1000	> 1000	> 1000	300 to 1000	CNC(=O)c1nnc(Nc2ccc(F)cn2)cc1Nc1cccc2c1OCCn1cnnc1-2 [Compound 73, 4-((5,6-dihydrobenzo[f][1,2,4]triazolo[4,3-d][1,4]oxazepin-8-yl)amino)-6-((5-fluoropyridin-2-yl)amino)-N-methylpyridazine-3-carboxamide]	300 to 1000	300 to 1000	30 to 300	300 to 1000
300 to 1000	> 1000	> 1000	300 to 1000	CNC(=O)c1nnc(Nc2ccc(F)cn2)cc1Nc1cccc2c1N(C)CCn1cnnc1-2 [Compound 76, 6-((5-fluoropyridin-2-yl)amino)-N-methyl-4-((7-methyl-6,7-dihydro-5H-benzo[f][1,2,4]triazolo[4,3-d][1,4]diazepin-8-yl)amino)pyridazine-3-carboxamide]	300 to 1000	> 1000	< 30	30 to 300
300 to 1000	> 1000	> 1000	30 to 300	CNC(=O)c1nnc(NC(=O)C2CC2)cc1Nc1cccc2c1N(C)CCn1cnnc1-2 [Compound 77, 6-(cyclopropanecarboxamido)-N-methyl-4-((7-methyl-6,7-dihydro-5H-benzo[f][1,2,4]triazolo[4,3-d][1,4]diazepin-8-yl)amino)pyridazine-3-carboxamide]	300 to 1000	> 1000	< 30	30 to 300
> 1000	> 1000	> 1000	> 1000	[2H]C([2H])([2H])NC(=O)c1cnc(NC(=O)C2CC2)cc1Nc1nccc2c1N(C)Cc1nn(C)nc1-2 [Compound 89, 6-(cyclopropanecarboxamido)-4-((2,5-dimethyl-4,5-dihydro-2H-[1,2,3]triazolo[4,5-c][1,7]naphthyridin-6-yl)amino)-N-(methyl-d3)nicotinamide]	–	> 1000	< 30	< 30
